Results from ChEMBL document CHEMBL1201862, “PubChem BioAssay data set” (2004).
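Results reflect a 48-hour exposure of cells in 96-well plates to compound at five concentrations. GI50: concentration for 50% inhibition of growth.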 Activity calls are given as the source filed them. Rule as the data show it: active = GI50 up to about 1.1 µM and inactive = higher.

Legend:
Assay in all cases: growth of human tumour cells (NCI), 48 h
SNB-75 = tested on: SNB-75
SF-268 = tested on: SF-268
SF-295 = tested on: SF-295
OVCAR-3 = tested on: OVCAR-3
U-251 = tested on: U-251
MOLT-4 = tested on: MOLT-4
SW-620 = tested on: SW-620
CAKI-1 = tested on: CAKI-1
SR = tested on: SR
M14 = tested on: M14
NCI-H522 = tested on: NCI-H522
KM12 = tested on: KM12
SN12C = tested on: SN12C
ACHN = tested on: ACHN
HCC 2998 = tested on: HCC 2998
IGROV-1 = tested on: IGROV-1
HL-60 = tested on: HL-60

SMILES | GI50 (SNB-75) | GI50 (SF-268) | GI50 (SF-295) | GI50 (OVCAR-3) | GI50 (U-251) | GI50 (MOLT-4) | GI50 (SW-620) | GI50 (CAKI-1) | GI50 (SR) | GI50 (M14) | GI50 (NCI-H522) | GI50 (KM12) | GI50 (SN12C) | GI50 (ACHN) | GI50 (HCC 2998) | GI50 (IGROV-1) | GI50 (HL-60)
O=C(CSCC(=O)N/N=C/c1cc(I)cc(I)c1O)N/N=C/c1cc(I)cc(I)c1O | 5.65 µM (inactive) | 4.34 µM (inactive) | 13.6 µM (inactive) | 27 µM (inactive) | 6.61 µM (inactive) | 5.19 µM (inactive) | 13.6 µM (inactive) | 18.3 µM (inactive) | 3.54 µM (inactive) | 17.8 µM (inactive) | 6.38 µM (inactive) | 25.8 µM (inactive) | 23.2 µM (inactive) | 11.9 µM (inactive) | 12.8 µM (inactive) | 8.28 µM (inactive) | 6.18 µM (inactive)
O=[N+]([O-])C(/C=C(\Cl)[N+](=O)[O-])=C1Nc2ccccc2N1 | 17.3 µM (inactive) | 57.1 µM (inactive) | 35.4 µM (inactive) | 90.2 µM (inactive) | 43.3 µM (inactive) | 37.1 µM (inactive) | > 100 µM (inactive) | 22.1 µM (inactive) | 29.6 µM (inactive) | 60.8 µM (inactive) | > 100 µM (inactive) | > 100 µM (inactive) | 39.7 µM (inactive) | 44.4 µM (inactive) | > 100 µM (inactive) | 64.7 µM (inactive) | 45.8 µM (inactive)
CC1CC(NC2CCCCC2)=Nc2ccccc2N1Cc1ccccc1 (configuration not stated) | 0.417 µM (active) | 4.06 µM (inactive) | 6.03 µM (inactive) | 6.92 µM (inactive) | 7.16 µM (inactive) | 3.55 µM (inactive) | 6.37 µM (inactive) | 5.46 µM (inactive) | 2.64 µM (inactive) | 2.04 µM (inactive) | 3.03 µM (inactive) | 4.75 µM (inactive) | 7.85 µM (inactive) | 10.4 µM (inactive) | 2.31 µM (inactive) | 1.91 µM (inactive) | 4.51 µM (inactive)
C=C(C)C(=O)O[C@H]1C[C@@]23O[C@@H]2CCC(=C[C@H]2OC(=O)C(=C)[C@H]12)COC3O (some centres not stated) | > 100 µM (inactive) | > 100 µM (inactive) | > 100 µM (inactive) | 49.5 µM (inactive) | > 100 µM (inactive) | 28.7 µM (inactive) | 17.9 µM (inactive) | > 100 µM (inactive) | 24.7 µM (inactive) | 57.5 µM (inactive) | 14.4 µM (inactive) | > 100 µM (inactive) | 49 µM (inactive) | 39.9 µM (inactive) | 69.3 µM (inactive) | > 100 µM (inactive) | 14.7 µM (inactive)
CCCCCCCCCCCCCCCCCC(=O)OCC(COC(=O)CCCN)OC(=O)CCCN (configuration not stated) | > 100 µM (inactive) | 23.1 µM (inactive) | 19.4 µM (inactive) | 19.3 µM (inactive) | 20.6 µM (inactive) | 24.8 µM (inactive) | 19.6 µM (inactive) | 18.7 µM (inactive) | 23.6 µM (inactive) | 16.9 µM (inactive) | 21 µM (inactive) | 15.5 µM (inactive) | 17.8 µM (inactive) | > 100 µM (inactive) | 18.5 µM (inactive) | 2.91 µM (inactive) | 54.2 µM (inactive)
Cc1nc2cccc(F)c2c(=O)n1C1CCCCNC1=O (configuration not stated) | > 10 µM (inactive) | > 10 µM (inactive) | > 10 µM (inactive) | > 10 µM (inactive) | > 10 µM (inactive) | > 10 µM (inactive) | > 10 µM (inactive) | > 10 µM (inactive) | > 10 µM (inactive) | > 10 µM (inactive) | > 10 µM (inactive) | > 10 µM (inactive) | > 10 µM (inactive) | > 10 µM (inactive) | > 10 µM (inactive) | > 10 µM (inactive) | > 10 µM (inactive)
